Measurements published in ChEMBL document CHEMBL1126537, “Synthesis and biological activity of sulfoximine-modified myristic acid analogues” (Bioorg Med Chem Lett, 1993).

Tests used:
[1] = species on record: Mus musculus; assay: Percentage control against LPS stimulated IL-1-alpha formation in murine peritoneal macrophages was measured by IL-1-alpha ELISA; type: functional; design: concentration or dose not given beside the values
[2] = test system: Moloney murine leukemia virus; assay: Compound was tested for its antagonistic activity against Moloney leukemia virus (MoLV) replication; type: functional, organism-based

IC50 [2]	Structure (SMILES)	Control [1]
10 µM	CCCCCCCCCCCCC[S+](=N)([O-])CCC (stereo not given)	206%
15 µM	CCCCCCCCCCCCC[S+](=N)([O-])Cc1ccccc1 (stereo not given)	326%

More lines, now with the values behind:

Structure (SMILES)	IC50 [2]	Control [1]
CCCCCCCCCCCCC[S+](C)(=N)[O-] (stereo not given)	5 µM	123%
CCCCCCCCCCCCC[S+](=N)([O-])CC(=O)OCC (stereo not given)	24 µM	190%
C/C=C/C/C=C/CCC(=O)[C@H]1O[C@H]1C(N)=O [CERULENIN]	2.7 µM	170%
